Data taken from US10196386B2, “Compounds having muscarinic receptor antagonist and beta2 adrenergic receptor agonist activity” (priority 2016, dated 2019).

Legend:
Human β2 adrenoceptor = molecular target: T1, Human β2 adrenoceptor (Homo sapiens, UniProt P07550); test: β2 adrenoceptor radioligand binding assay
T1 construct: purchased Perkin Elmer
How it was run: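 Human β2 receptor membranes incubated 1 h at room temperature with 0.3 nM [125I]cyanopindolol and compound in pH 7.4 HEPES buffer (0.5% DMSO); 2 μM s-propranolol defined non-specific binding. Bound label counted after filtration; IC50 from competition curves, converted to Ki via Cheng–Prusoff.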

Human M3 receptor = molecular target: T2, Human M3 receptor (Homo sapiens, UniProt P20309); test: biochemical; format: binding; conditions: read-out: M3 Range
T2 construct: purchased Perkin Elmer
T2 sequence (P20309 whole entry): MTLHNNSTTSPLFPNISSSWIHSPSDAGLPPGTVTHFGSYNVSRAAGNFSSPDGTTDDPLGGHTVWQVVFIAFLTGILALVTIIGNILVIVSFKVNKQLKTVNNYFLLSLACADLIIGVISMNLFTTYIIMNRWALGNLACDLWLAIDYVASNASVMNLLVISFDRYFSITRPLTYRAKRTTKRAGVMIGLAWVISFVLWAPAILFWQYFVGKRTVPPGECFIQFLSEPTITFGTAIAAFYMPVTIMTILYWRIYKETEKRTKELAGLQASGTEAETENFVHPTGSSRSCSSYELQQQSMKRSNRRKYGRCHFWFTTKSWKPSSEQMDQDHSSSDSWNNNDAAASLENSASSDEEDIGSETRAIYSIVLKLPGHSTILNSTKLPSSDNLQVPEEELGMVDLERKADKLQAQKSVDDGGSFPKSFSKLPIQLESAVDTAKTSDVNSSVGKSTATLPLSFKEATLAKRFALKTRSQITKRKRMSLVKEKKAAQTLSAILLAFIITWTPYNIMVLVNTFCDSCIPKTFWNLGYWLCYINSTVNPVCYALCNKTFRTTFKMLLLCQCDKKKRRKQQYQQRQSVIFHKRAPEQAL

T1 sequence (P07550 whole entry): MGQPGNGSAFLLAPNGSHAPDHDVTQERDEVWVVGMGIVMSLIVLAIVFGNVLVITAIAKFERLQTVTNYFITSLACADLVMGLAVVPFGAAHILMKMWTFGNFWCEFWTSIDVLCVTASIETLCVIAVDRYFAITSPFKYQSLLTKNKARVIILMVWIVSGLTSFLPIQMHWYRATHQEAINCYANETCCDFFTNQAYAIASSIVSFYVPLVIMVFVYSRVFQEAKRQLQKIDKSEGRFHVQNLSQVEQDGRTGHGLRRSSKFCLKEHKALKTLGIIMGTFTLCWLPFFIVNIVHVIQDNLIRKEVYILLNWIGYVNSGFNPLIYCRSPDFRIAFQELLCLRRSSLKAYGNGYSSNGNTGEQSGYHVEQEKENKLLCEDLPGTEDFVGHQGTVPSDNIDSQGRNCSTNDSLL

| Compound | IC50 (Human β2 adrenoceptor) [pM] | IC50 (Human M3 receptor) [pM] |
| --- | --- | --- |
| C[C@@H](OC(=O)[C@](O)(c1ccccc1)c1cccc(-c2ccc(CNC(=O)c3ccc(CNC[C@H](O)c4ccc(O)c5[nH]c(=O)ccc45)cc3)s2)c1)C1CCN(Cc2ccccc2)CC1 [Compound 2G, (R)-1-(1-Benzylpiperidin-4-yl)ethyl (S)-2-hydroxy-2-(3-(5-((4-((((R)-2-hydroxy-2-(8-hydroxy-2-oxo-1,2-dihydroquinolin-5-yl)ethyl)amino)-methyl)benzamido)methyl)thiophen-2-yl)phenyl)-2-phenylacetate] | < 300 | 300 to 3000 |
| O=C(NCc1ccc(-c2cccc([C@](O)(C(=O)OC[C@@H]3[C@H]4CN(Cc5ccccc5)C[C@@H]34)c3ccccc3)c2)s1)c1ccc(CNC[C@H](O)c2ccc(O)c3[nH]c(=O)ccc23)cc1 [Compound 2D, ((1R,5S,6r)-3-Benzyl-3-azabicyclo[3.1.0]hexan-6-yl)methyl (S)-2-hydroxy-2-(3-(5-((4-((((R)-2-hydroxy-2-(8-hydroxy-2-oxo-1,2-dihydroquinolin-5-yl)ethyl)amino)methyl)benzamido)methyl)thiophen-2-yl)phenyl)-2-phenylacetate] | 300 to 3000 | 300 to 3000 |
| COc1cc(C(=O)NCc2ccc(-c3cccc([C@](O)(C(=O)OCC4CCN(Cc5ccccc5)CC4)c4ccccc4)c3)s2)c(F)cc1CNC[C@H](O)c1ccc(O)c2[nH]c(=O)ccc12 [Compound 1E, (1-Benzylpiperidin-4-yl)methyl (S)-2-(3-(5-((2-fluoro-4-((((R)-2-hydroxy-2-(8-hydroxy-2-oxo-1,2-dihydroquinolin-5-yl)ethyl)amino)methyl)-5-methoxybenzamido)methyl)thiophen-2-yl)phenyl)-2-hydroxy-2-phenylacetate] | < 300 | 300 to 3000 |
| Cn1nc(C(=O)NCc2ccc(CNC[C@H](O)c3ccc(O)c4[nH]c(=O)ccc34)cc2)cc1-c1cccc([C@](O)(C(=O)OCC2CCN(Cc3ccccc3)CC2)c2ccccc2)c1 [Compound 14, (1-Benzylpiperidin-4-yl)methyl (S)-2-hydroxy-2-(3-(3-((4-((((R)-2-hydroxy-2-(8-hydroxy-2-oxo-1,2-dihydroquinolin-5-yl)ethyl)amino)methyl)-benzyl)carbamoyl)-1-methyl-1H-pyrazol-5-yl)phenyl)-2-phenylacetate] | 300 to 3000 | 300 to 3000 |
| O=C(c1ccc(-c2cccc([C@](O)(C(=O)OCC3CCN(Cc4ccccc4)CC3)c3ccccc3)c2)cn1)N1CCC(CNC[C@H](O)c2ccc(O)c3[nH]c(=O)ccc23)CC1 [Compound 6C, (1-Benzylpiperidin-4-yl)methyl (S)-2-hydroxy-2-(3-(6-(4-((((R)-2-hydroxy-2-(8-hydroxy-2-oxo-1,2-dihydroquinolin-5-yl)ethyl)amino)methyl)piperidine-1-carbonyl)pyridin-3-yl)phenyl)-2-phenylacetate] | < 300 | < 300 |
| O=C(NCc1ccc(-c2cccc([C@](O)(C(=O)OCC3CCN(Cc4ccccc4)CC3)c3ccccc3)c2)s1)c1ccc(CNC[C@H](O)c2ccc(O)c3[nH]c(=O)ccc23)c(F)c1 [Compound 1J, (1-Benzylpiperidin-4-yl)methyl (S)-2-(3-(5-((3-fluoro-4-((((R)-2-hydroxy-2-(8-hydroxy-2-oxo-1,2-dihydroquinolin-5-yl)ethyl)amino)methyl)-benzamido)methyl)thiophen-2-yl)phenyl)-2-hydroxy-2-phenylacetate] | < 300 | 300 to 3000 |
| C[C@@H](NC(=O)c1ccc(CNC[C@H](O)c2ccc(O)c3[nH]c(=O)ccc23)cc1)C(=O)N1CC=C(c2cccc([C@](O)(C(=O)OCC3CCN(Cc4ccccc4)CC3)c3ccccc3)c2)CC1 [Compound 8B, (1-Benzylpiperidin-4-yl)methyl (S)-2-hydroxy-2-(3-(1-((4-((((R)-2-hydroxy-2-(8-hydroxy-2-oxo-1,2-dihydroquinolin-5-yl)ethyl)amino)methyl)benzoyl)-D-alanyl)-1,2,3,6-tetrahydropyridin-4-yl)phenyl)-2-phenylacetate] | 300 to 3000 | 300 to 3000 |
| O=C(c1ccc(CNC[C@H](O)c2ccc(O)c3[nH]c(=O)ccc23)cc1)N1CC=C(c2cccc([C@](O)(C(=O)OCC3CCN(Cc4ccccc4)CC3)c3ccccc3)c2)CC1 [Compound 3B, (1-Benzylpiperidin-4-yl)methyl (S)-2-hydroxy-2-(3-(1-(4-((((R)-2-hydroxy-2-(8-hydroxy-2-oxo-1,2-dihydroquinolin-5-yl)ethyl)amino)methyl)benzoyl)-1,2,3,6-tetrahydropyridin-4-yl)phenyl)-2-phenylacetate] | < 300 | 300 to 3000 |
| O=C(c1cccc(-c2cccc([C@](O)(C(=O)OCC3CCN(Cc4ccccc4)CC3)c3ccccc3)c2)n1)N1CCC(CNC[C@H](O)c2ccc(O)c3[nH]c(=O)ccc23)CC1 [Compound 6F, (1-Benzylpiperidin-4-yl)methyl (S)-2-hydroxy-2-(3-(6-(4-((((R)-2-hydroxy-2-(8-hydroxy-2-oxo-1,2-dihydroquinolin-5-yl)ethyl)amino)methyl)piperidine-1-carbonyl)pyridin-2-yl)phenyl)-2-phenylacetate] | 300 to 3000 | 300 to 3000 |
| COc1cc(C(=O)NCc2ccc(-c3cccc([C@](O)(C(=O)OCC4CCN(Cc5ccccc5)CC4)c4ccccc4)c3)nn2)ccc1CNC[C@H](O)c1ccc(O)c2[nH]c(=O)ccc12 [Compound 4C, (1-Benzylpiperidin-4-yl)methyl (S)-2-hydroxy-2-(3-(6-((4-((((R)-2-hydroxy-2-(8-hydroxy-2-oxo-1,2-dihydroquinolin-5-yl)ethyl)amino)methyl)-3-methoxybenzamido)methyl)pyridazin-3-yl)phenyl)-2-phenylacetate] | < 300 | < 300 |
| CCOc1cc(C(=O)NCc2ccc(-c3cccc([C@](O)(C(=O)OCC4CCN(Cc5ccccc5)CC4)c4ccccc4)c3)s2)ccc1CNC[C@H](O)c1ccc(O)c2[nH]c(=O)ccc12 [Compound 1I, (1-Benzylpiperidin-4-yl)methyl (S)-2-(3-(5-((3-ethoxy-4-((((R)-2-hydroxy-2-(8-hydroxy-2-oxo-1,2-dihydroquinolin-5-yl)ethyl)amino)methyl)-benzamido)methyl)thiophen-2-yl)phenyl)-2-hydroxy-2-phenylacetate] | 300 to 3000 | 300 to 3000 |
| O=C(c1ccc(CNC[C@H](O)c2ccc(O)c3[nH]c(=O)ccc23)cc1)N1CCC(c2cccc([C@](O)(C(=O)OCC3CCN(Cc4ccccc4)CC3)c3ccccc3)c2)CC1 [Compound 7, (1-Benzylpiperidin-4-yl)methyl (S)-2-hydroxy-2-(3-(1-(4-((((R)-2-hydroxy-2-(8-hydroxy-2-oxo-1,2-dihydroquinolin-5-yl)ethyl)amino)methyl)benzoyl)piperidin-4-yl)phenyl)-2-phenylacetate] | 300 to 3000 | 300 to 3000 |
| COc1cc(C(=O)NCc2ccc(-c3cccc([C@](O)(C(=O)OCC4CCN(Cc5ccccc5)CC4)c4ccccc4)c3)s2)c(Cl)cc1CNC[C@H](O)c1ccc(O)c2[nH]c(=O)ccc12 [Compound 1D, (1-Benzylpiperidin-4-yl)methyl (S)-2-(3-(5-((2-chloro-4-((((R)-2-hydroxy-2-(8-hydroxy-2-oxo-1,2-dihydroquinolin-5-yl)ethyl)amino)methyl)-5-methoxybenzamido)methyl)thiophen-2-yl)phenyl)-2-hydroxy-2-phenylacetate] | < 300 | 300 to 3000 |
| O=C(NCc1cnc(-c2cccc([C@](O)(C(=O)OCC3CCN(Cc4ccccc4)CC3)c3ccccc3)c2)s1)c1ccc(CNC[C@H](O)c2ccc(O)c3[nH]c(=O)ccc23)cc1 [Compound 5B, (1-Benzylpiperidin-4-yl)methyl (S)-2-hydroxy-2-(3-(5-((4-((((R)-2-hydroxy-2-(8-hydroxy-2-oxo-1,2-dihydroquinolin-5-yl)ethyl)amino)methyl)-benzamido)methyl)thiazol-2-yl)phenyl)-2-phenylacetate] | < 300 | 300 to 3000 |
| COc1cc(C(=O)NCc2cc(-c3ccc([C@](O)(C(=O)OCC4CCN(Cc5ccccc5)CC4)c4ccccc4)cc3)cs2)ccc1CNC[C@H](O)c1ccc(O)c2[nH]c(=O)ccc12 [Compound 15F, (1-benzylpiperidin-4-yl)methyl (S)-2-hydroxy-2-(4-(5-((4-((((R)-2-hydroxy-2-(8-hydroxy-2-oxo-1,2-dihydroquinolin-5-yl)ethyl)amino)methyl)-3-methoxybenzamido)methyl)thiophen-3-yl)phenyl)-2-phenylacetate] | < 300 | 300 to 3000 |
| COc1cc(C(=O)N2CCC(c3cccc([C@](O)(C(=O)OCC4CCN(Cc5ccccc5)CC4)c4ccccc4)c3)CC2)ccc1CNC[C@H](O)c1ccc(O)c2[nH]c(=O)ccc12 [Compound 7A, (1-Benzylpiperidin-4-yl)methyl (S)-2-hydroxy-2-(3-(1-(4-((((R)-2-hydroxy-2-(8-hydroxy-2-oxo-1,2-dihydroquinolin-5-yl)ethyl)amino)methyl)-3-methoxybenzoyl)piperidin-4-yl)phenyl)-2-phenylacetate] | 300 to 3000 | 300 to 3000 |
| COc1cc(C(=O)NCC(=O)N2CC=C(c3cccc([C@](O)(C(=O)OCC4CCN(Cc5ccccc5)CC4)c4ccccc4)c3)CC2)ccc1CNC[C@H](O)c1ccc(O)c2[nH]c(=O)ccc12 [Compound 8E, (1-Benzylpiperidin-4-yl)methyl (S)-2-hydroxy-2-(3-(1-((4-((((R)-2-hydroxy-2-(8-hydroxy-2-oxo-1,2-dihydroquinolin-5-yl)ethyl)amino)methyl)-3-methoxybenzoyl)glycyl)-1,2,3,6-tetrahydropyridin-4-yl)phenyl)-2-phenylacetate] | < 300 | 300 to 3000 |
| O=C(NCc1ccc(-c2cccc([C@](O)(C(=O)OCC3CCN(Cc4ccccc4)CC3)c3ccccc3)c2)s1)c1ccc(CNC[C@H](O)c2ccc(O)c3[nH]c(=O)ccc23)cn1 [Compound 1Q, (1-Benzylpiperidin-4-yl)methyl (S)-2-hydroxy-2-(3-(5-((5-((((R)-2-hydroxy-2-(8-hydroxy-2-oxo-1,2-dihydroquinolin-5-yl)ethyl)amino)methyl)-picolinamido)methyl)thiophen-2-yl)phenyl)-2-phenylacetate] | < 300 | 300 to 3000 |
